Measured values as given in patent US6930118B2, “3-Oxadiazol-5-yl-1-aminoalkyl-1h-indole derivatives” (Amrad Operations Pty. Ltd., priority 2001, dated 2005).
Where a name gives a salt, the structure may show the parent alone.

Legend:
CB1 receptor [1] = target: T1, CB1 receptor (Mus musculus, UniProt P47746); test: Mouse electrically-stimulated isolated vas deferens bioassay (MVD); assay type: cell-based; conditions: decrease of electrically evoked twitch force; for inhibition at 1 µM: read-out: CB1 (MVD) % inh at 1.0 μM
T1 construct: Mouse vasa deferentia were dissected with capsular connective tissue intact and set up in 20 ml organ baths; from tissue; host or cells: mouse (Swiss white) isolated vas deferens
Procedure: Functional activity of the compounds was assayed using the mouse electrically-stimulated vas deferens bioassay, a measure of CB1 receptor function (24,25). […] CB2 functionality may be investigated using assays known to those skilled in the art; for example those described in U.S. Pat. No. 6,013,648.
Swiss white mice (35-40 g) were killed by exposure to 80% CO2 in O2 and exsanguination. Mouse vasa deferentia were dissected with capsular connective tissue intact and set up in 20 ml organ baths at 37° C. in Mg^2+-free physiological salt solution. The upper (epididymal) end was attached to an isometric force transducer (Grass FTO3C) and the lower (prostatic) end tied to a fixed support between two parallel platinum field electrodes (5 mm apart, 5 mm long). The tissue was initially stretched by 0.5 g force and allowed to equilibrate 10 min. The tissues were stimulated (Grass S88 stimulator) to contract using trains of electrical field stimulation of 3 pulses (4 Hz), 0.5 ms duration, 100 V (80% maximal voltage) every 20 s for 10 min. This electrical stimulation period was applied before and after both antagonist and agonist addition. Output from the transducer amplifier was recorded on a flat bed recorder (Gould BS 272, Cleveland, Ohio, U.S.A.). All drugs were dissolved in dimethyl sulfoxide (DMSO; Sigma, St Louis, Mo., U.S.A.) and allowed to equilibrate with the tissue for 30 min before the responses to field stimulation were assessed. Drug effects were measured as the percentage decrease of the pre-drug twitch force.

CB1 receptor [2] = target: T2, CB1 receptor (Rattus norvegicus, UniProt P20272); test: Radioligand binding assay, rat cerebellum membranes
T2 construct: the cerebellum was dissected away from the rest of the brain, weighed and homogenised; from tissue; host or cells: Sprague Dawley rat cerebellum membranes
Procedure: (§1) The affinity of compounds at cannabinoid receptors is routinely assessed using ligand binding assays known to those skilled in the art. Radioligand binding assays were conducted using rat cerebellum or rat spleen. The cerebellum of the rat is known to express predominantly, if not exclusively, the CB1 receptor subtype (20,21). Thus, binding constants obtained from these studies are characterised by a single affinity value, as only one receptor type is labelled. […] In contrast, biphasic binding curves in the spleen characterised by two affinity constants represent the profile of compounds showing selectivity for one receptor subtype over another. In order to determine the order of selectivity, the high and low affinity values obtained for these compounds in the spleen binding assays were compared to the single affinity estimates obtained for the cerebellum (CB1) assays.
Sprague Dawley rats of either sex (200-300 g) were killed by gassing with 80% CO2 in O2 and decapitation, and the entire brain excised rapidly and placed in ice-cold Tris-HCl buffer (Tris 50 mM, MgCl2 3 mM, EGTA 0.2 mM, pH to 7.4 with HCl). On ice, the cerebellum was dissected away from the rest of the brain, weighed and homogenised (PT-DA 1205/2EC Polytron Aggregate; Kinematica, Luzernerstrasse Switzland) in 10 volumes of ice-cold Tris-HCl buffer. The homogenate was then made up to 20 volumes and centrifuged (Model J2-M1, Beckman, Fullerton, Calif., U.S.A.) at […] for 15 min at 4° C.). Subsequently, the supernatant was discarded, the pellet resuspended in 20 volumes of buffer and centrifuged as before. The resulting pellet was then resuspended in 20 volumes of buffer and assayed for protein content using the method of Bradford (Bradford, 1976) in a Novaspec II spectrophotometer (Pharmacia Biotech; with bovine serum albumin (BSA; Hömosafe BSA, c/o ‘ScimaR’ Templestowe, Australia) as the standard. The homogenate was then recentrifuged and the final pellet resuspended in Tris-HCl buffer at a protein concentration of 5 mg/ml and stored in 500 μl aliquots at −80° C. until used in the binding assay.
(§2) Ligand binding assays were performed in polypropylene tubes in a total volume of 1 ml containing Tris-HCl buffer, a final concentration of 1 mg/ml BSA, and varying concentrations of drugs. Tubes contained 30 μg of membrane protein and incubation was started by the addition of 100 μl of either 0.5 nM [^3H]SR141716A or 0.2 nM [^3H]WIN 55,212-2. Experiments were carried out in triplicate at 30° C. for 90 min with non-specific binding being defined as radioligand binding in the presence of 1 μM unlabelled WIN 55,212-2. Incubations were terminated by rapid filtration with a M-24 Cell Harvester (Brandel; Gaithersburg, Md., U.S.A.) using ice-cold Tris-HCl buffer containing 0.5 mg/ml BSA. Filters (Wattman GF/B) were soaked for 2 h prior to filtering in a solution of Tris-HCl buffer containing 3 mg/ml BSA and 0.5% w/w polyethyleneimine (PEI). Filters were left to dry thoroughly before placement into scintillation vials with 5 ml of scintillation cocktail (Ultima Gold LSC-cocktail; Packard Bioscience, Meriden, Conn., U.S.A.) being added. Vials were left to stand overnight before the radioactivity was determined using a Model 1409 DSA Liquid Scintillation counter (EG&E Wallac, Gaithersburg, Md., U.S.A.).
(§3) The resulting radioligand binding curves were analyzed by nonlinear regression using the program PRISM 3.0 (GraphPad Software, San Diego, Calif.) in order to derive ligand affinity estimates for the cannabinoid receptor(s).

CB2 receptor = target: T3, CB2 receptor (Rattus norvegicus, UniProt Q9QZN9); test: Radioligand binding assay, rat spleen membranes
T3 sequence (Q9QZN9 1-343 limits assumed): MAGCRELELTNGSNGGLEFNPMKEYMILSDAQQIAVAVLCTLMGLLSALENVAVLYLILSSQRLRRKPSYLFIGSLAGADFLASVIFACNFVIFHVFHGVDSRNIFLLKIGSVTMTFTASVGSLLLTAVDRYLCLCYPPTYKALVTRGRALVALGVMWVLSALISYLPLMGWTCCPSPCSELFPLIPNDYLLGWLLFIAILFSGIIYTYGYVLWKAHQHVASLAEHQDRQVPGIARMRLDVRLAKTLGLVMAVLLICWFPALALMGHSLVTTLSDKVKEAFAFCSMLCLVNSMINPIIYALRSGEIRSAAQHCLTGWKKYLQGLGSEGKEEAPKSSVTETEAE
Procedure: as §1
Sprague Dawley rats (200-300 g) were killed by gassing with 80% CO2 in O2 and decapitation and the spleen excised rapidly and placed in ice-cold Tris-HCl buffer (Tris 50 mM, MgCl2 3 mM, EGTA 0.2 mM, pH 7.4). The spleen was weighed and diced using a scalpel before homogenisation in 10 volumes of Tris-HCl buffer. The homogenate was then made up to 20 volumes and centrifuged (12,600 g, 5 min, 4° C.), the supernatant was retained and centrifuged (23,800 g, 20 min, 4° C.). The pellet was resuspended in 10 volumes of buffer and assayed for protein content using the method of Bradford (Bradford, 1976) with BSA as the standard. The homogenate was then recentrifuged and the final pellet resuspended in Tris-HCl buffer at a protein concentration of 5 mg/ml and stored in 500 μl aliquots at −80° C. until used for the binding assay.
as §2, §3

T2 sequence (P20272 whole entry): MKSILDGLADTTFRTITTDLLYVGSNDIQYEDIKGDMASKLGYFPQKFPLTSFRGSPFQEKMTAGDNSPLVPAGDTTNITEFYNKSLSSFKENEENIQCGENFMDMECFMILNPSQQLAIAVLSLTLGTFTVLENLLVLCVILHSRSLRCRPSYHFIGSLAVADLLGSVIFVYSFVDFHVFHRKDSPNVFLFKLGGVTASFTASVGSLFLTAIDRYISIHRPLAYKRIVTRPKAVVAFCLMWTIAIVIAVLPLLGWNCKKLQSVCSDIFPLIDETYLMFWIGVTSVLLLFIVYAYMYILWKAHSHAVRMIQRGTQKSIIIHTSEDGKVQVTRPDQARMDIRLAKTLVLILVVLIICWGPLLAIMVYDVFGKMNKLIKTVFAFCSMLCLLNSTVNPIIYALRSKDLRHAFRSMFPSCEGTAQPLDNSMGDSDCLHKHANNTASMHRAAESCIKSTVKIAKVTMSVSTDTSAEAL
T1 sequence (P47746 whole entry): as the sequence (P20272 whole entry) above, with E95D counted along it

Row | Compound | inhibition at 1 µM (CB1 receptor [1]) [%] | IC50 (CB1 receptor [2]) [nM] | IC50 (CB2 receptor) [nM] | other results
1 | COc1ccc(Cc2noc(-c3cn(CCN4CCOCC4)c4ccccc34)n2)cc1 [Compound 6, 3-[3-(4-Methoxy-benzyl)-[1,2,4]oxadiazol-5-yl]-1-[2-(morpholin-4-yl)ethyl]-1H-indole] | 39 | 200 | 2800 | 
2 | c1csc(Cc2noc(-c3cn(CCN4CCOCC4)c4ccccc34)n2)c1 [Compound 4, 1-[2-(Morpholin-4-yl)ethyl]-3-(3-thien-2-ylmethyl-[1,2,4]oxadiazol-5-yl)-1H-indole] | 81 | 100 |  | 
3 | CCCCCn1cc(-c2nc(Cc3ccccc3)no2)c2ccccc21 [Compound 8, 3-(3-Benzyl-[1,2,4]oxadiazol-5-yl)-1-pentyl-1H-indole] | 100 | 6 | 400 | 
4 | CCOC(=O)CCn1cc(-c2nc(Cc3ccc4ccccc4c3)no2)c2ccccc21 [Compound 16, Ethyl 3-([3-(naphth-2-ylmethyl)-1,2,4-oxadiazol-5-yl]-1H-indol-1-yl)propanoate] |  |  |  | CB1 (MVD) % inh at 1.0 μM (CB1 receptor [1]): 77%
5 | CCCCC/C=C\C/C=C\C/C=C\C/C=C\CCCC(=O)NCCO [Anandamide, reference compound] | 84 |  |  | 
6 | Brc1ccc(Cc2noc(-c3cn(CCN4CCOCC4)c4ccccc34)n2)cc1 [Compound 7, 3-[3-(4-Bromo-benzyl)-[1,2,4]oxadiazol-5-yl]-1-[2-(morpholin-4-yl)ethyl]-1H-indole] | 58 |  |  | 
7 | Cc1c(C(=O)c2cccc3ccccc23)c2cccc3c2n1[C@@H](CN1CCOCC1)CO3 [WIN-55212, WIN-55212-2, reference compound] | 100 |  |  | 
8 | c1ccc(-c2noc(-c3cn(CCN4CCOCC4)c4ccccc34)n2)cc1 [Compound 3, 3-(3-Phenyl-[1,2,4]-oxadiazol-5-yl)-1-[2-(morpholin-4-yl)ethyl]-1H-indole] | 83 | 1000 | 1000 | melting point: 144 to 146 °C
9 | c1ccc2cc(Cc3noc(-c4cn(CCN5CCCC5)c5ccccc45)n3)ccc2c1 [Compound 12, 3-[3-(naphth-2-ylmethyl)-[1,2,4]-oxadiazol-5-yl]-1-[2-(pyrolidin-1-yl)ethyl]-1H-indole] |  |  |  | CB1 (MVD) % inh at 1.0 μM (CB1 receptor [1]): 96%
10 | c1ccc(Cc2noc(-c3cn(CCN4CCOCC4)c4ccccc34)n2)cc1 [Compound 2, 3-(3-Benzyl-[1,2,4]-oxadiazol-5-yl)-1-[2-(morpholin-4-yl)ethyl]-1H-indole] | 96 | 1000 | 1000 | 
11 | CCOC(=O)CCCCn1cc(-c2nc(Cc3ccc4ccccc4c3)no2)c2ccccc21 [Compound 14, Ethyl 5-([3-(naphth-2-ylmethyl)-[1,2,4]-oxadiazole-5-yl]-1H-indol-1-yl)pentanoate] |  |  |  | CB1 (MVD) % inh at 1.0 μM (CB1 receptor [1]): 42%
12 | c1ccc2cc(Cc3noc(-c4cn(CCN5CCOCC5)c5ccccc45)n3)ccc2c1 [Compound 13, 3-[3-(naphth-2-ylmethyl)-[1,2,4]-oxadiazol-5-yl]-1-[2-(morpholin-4-yl)ethyl]-1H-indole] | 54 |  |  | 
13 | c1ccc(-c2ccc(-c3noc(-c4cn(CCN5CCOCC5)c5ccccc45)n3)cc2)cc1 [Compound 11, 3-[3-(Biphenyl)-[1,2,4]oxadiazole-5-yl]-1-[2-(morpholin-4-yl)ethyl]-1H-indole] |  | > 10000 | > 10000 | CB1 (MVD) % inh at 1.0 μM (CB1 receptor [1]): 11%
14 | c1ccc(Cc2noc(-c3cn(CCN4CCCC4)c4ccccc34)n2)cc1 (as salt: tartrate) [Compound 1, 3-(3-Benzyl-[1,2,4]-oxadiazol-5-yl)-1-[2-(pyrrolidin-1-yl)ethyl]-1H-indole] |  |  |  | melting point: 59 to 60 °C
15 | c1ccc(CCc2noc(-c3cn(CCN4CCOCC4)c4ccccc34)n2)cc1 [Compound 9, 1-[2-(morpholin-4-yl)ethyl]-3-(3-phenethyl-[1,2,4]oxadiazol-5-yl)-1H-indole] | 90 |  | 1200 | 
16 | O=C(O)CCCCn1cc(-c2nc(Cc3ccc4ccccc4c3)no2)c2ccccc21 [Compound 15, 5-([3-(Naphth-2-ylmethyl)-[1,2,4]-oxadiazole-5-yl]-1H-indol-1-yl)pentanoic acid] |  |  |  | CB1 (MVD) % inh at 1.0 μM (CB1 receptor [1]): 54%
17 | Clc1ccccc1Cc1noc(-c2cn(CCN3CCOCC3)c3ccccc23)n1 [Compound 10, 3-[3-(2-Chlorobenzyl)-[1,2,4]-oxadiazol-5-yl]-1-[2-(morpholin-4-yl)ethyl]-1H-indole] | 95 |  |  | 
18 | c1ccc(Cc2noc(-c3cn(CCN4CCCCC4)c4ccccc34)n2)cc1 [Compound 5, 3-(3-Benzyl-[1,2,4]oxadiazol-5-yl)-1-[2-(piperidin-1-yl)ethyl]-1H-indole] | 46 |  |  | 
